By Ki is commonly meant the equilibrium dissociation constant of an inhibitor or competing ligand from its target.

Where a name gives a salt, the structure may show the parent alone. Read-outs that look alike come from different tables or passages of the source.

This passage reports Ki results from patent publication US9738655B2, “Tetrahydroisoquinolines containing substituted azoles as factor XIa inhibitors” (BRISTOL-MYERS SQUIBB COMPANY, priority 2013, dated 2017).

The target of assay [1] is purified human plasma kallikrein (Homo sapiens (Human), UniProt P03952). The assay is described as follows: Plasma kallikrein enzyme inhibition assay (chromogenic substrate S-2302). Type of assay: biochemical.
In assay [2] the target is purified human Factor XIa (Homo sapiens (Human), UniProt P03951). The assay is described as follows: Factor XIa enzyme inhibition assay (chromogenic substrate S-2366). The settings on record: read-out: Factor XIa Ki.
Protocol: The effectiveness of compounds of the present invention as inhibitors of the coagulation Factors XIa, VIIa, IXa, Xa, XIIa, plasma kallikrein or thrombin, can be determined using a relevant purified serine protease, respectively, and an appropriate synthetic substrate. The rate of hydrolysis of the chromogenic or fluorogenic substrate by the relevant serine protease was measured both in the absence and presence of compounds of the present invention. […] A decrease in the rate of absorbance or fluorescence change in the presence of inhibitor is indicative of enzyme inhibition. […] The results of this assay are expressed as the inhibitory constant, Ki.
Values of Ki were determined by allowing the protease to react with the substrate in the presence of the inhibitor.
Where [3] appears, read: measured at 25° C. (no asterisk).

purified human Factor XIa, sequence (P03951 388-625): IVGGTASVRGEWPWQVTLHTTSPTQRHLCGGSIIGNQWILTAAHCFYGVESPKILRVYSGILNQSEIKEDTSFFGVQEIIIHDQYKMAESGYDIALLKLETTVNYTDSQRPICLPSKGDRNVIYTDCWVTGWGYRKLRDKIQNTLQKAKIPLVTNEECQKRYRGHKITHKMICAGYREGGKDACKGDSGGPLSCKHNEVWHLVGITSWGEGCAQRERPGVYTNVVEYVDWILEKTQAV
purified human Factor XIa, sequence (P03951 19-387 partner): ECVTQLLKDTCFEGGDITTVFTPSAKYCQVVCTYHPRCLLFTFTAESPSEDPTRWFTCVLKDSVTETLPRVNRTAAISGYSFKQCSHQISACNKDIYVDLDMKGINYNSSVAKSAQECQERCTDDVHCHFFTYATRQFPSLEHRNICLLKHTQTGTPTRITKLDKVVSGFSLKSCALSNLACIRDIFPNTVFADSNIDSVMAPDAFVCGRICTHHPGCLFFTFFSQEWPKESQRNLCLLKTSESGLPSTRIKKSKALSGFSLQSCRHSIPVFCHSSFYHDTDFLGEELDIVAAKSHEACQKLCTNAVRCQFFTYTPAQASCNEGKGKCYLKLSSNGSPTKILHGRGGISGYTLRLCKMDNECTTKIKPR
purified human plasma kallikrein, sequence (P03952 391-638): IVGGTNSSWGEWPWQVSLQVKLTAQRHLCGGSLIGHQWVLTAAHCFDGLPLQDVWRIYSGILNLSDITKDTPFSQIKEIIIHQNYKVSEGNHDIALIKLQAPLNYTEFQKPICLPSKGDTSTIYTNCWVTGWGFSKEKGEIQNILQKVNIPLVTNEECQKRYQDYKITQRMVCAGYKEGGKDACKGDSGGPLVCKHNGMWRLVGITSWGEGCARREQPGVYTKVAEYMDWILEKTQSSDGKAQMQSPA
purified human plasma kallikrein, sequence (P03952 20-390 partner): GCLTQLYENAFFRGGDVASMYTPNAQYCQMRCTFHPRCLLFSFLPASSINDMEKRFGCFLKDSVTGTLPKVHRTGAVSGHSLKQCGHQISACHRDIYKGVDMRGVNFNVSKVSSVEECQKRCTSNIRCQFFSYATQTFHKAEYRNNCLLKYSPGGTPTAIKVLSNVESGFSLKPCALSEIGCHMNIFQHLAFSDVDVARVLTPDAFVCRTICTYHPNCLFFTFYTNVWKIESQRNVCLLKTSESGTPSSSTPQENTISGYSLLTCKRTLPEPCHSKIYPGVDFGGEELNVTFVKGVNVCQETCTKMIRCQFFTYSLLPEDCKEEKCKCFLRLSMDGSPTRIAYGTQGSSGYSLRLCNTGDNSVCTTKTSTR

`COC1CCN(c2cccc3c2CCN(C(=O)c2cn(-c4cccc(Cl)c4F)nn2)C3C(=O)Nc2ccc(C(=O)O)cc2)CC1` (stereo not drawn) [Example 215, 4-(2-(1-(3-chloro-2-fluorophenyl)-1H-1,2,3-triazole-4-carbonyl)-5-(4-methoxypiperidin-1-yl)-1,2,3,4-tetrahydroisoquinoline-1-carboxamido)benzoic acid, TFA salt]: the Ki in assay [1] (setting [3]) is 20.2 nM; in assay [2] (measured at 25° C.) it was less than 5 nM.
In the case of `CN1CCN(c2cccc3c2CCN(C(=O)C2CC(c4cccc(Cl)c4)=NO2)C3C(=O)Nc2ccc(C(=O)O)cc2)CC1` (stereo not drawn) [Example 217, 4-(2-(3-(3-chlorophenyl)-4,5-dihydroisoxazole-5-carbonyl)-5-(4-methylpiperazin-1-yl)-1,2,3,4-tetrahydroisoquinoline-1-carboxamido)benzoic acid, 2 TFA salt], the figures for the Ki in assay [1] (setting [3]) and in assay [2] (measured at 25° C.) were 3.12 nM and 15.2 nM, respectively.
Regarding `CCOC(=O)c1ccc(NC(=O)C2c3cccc(N4CCC(N5CCCC5)CC4)c3CCN2C(=O)c2cn(-c3cccc(Cl)c3F)nn2)cc1` (stereo not drawn) [Example 219, Ethyl 4-(2-(1-(3-chloro-2-fluorophenyl)-1H-1,2,3-triazole-4-carbonyl)-5-(4-(pyrrolidin-1-yl)piperidin-1-yl)-1,2,3,4-tetrahydroisoquinoline-1-carboxamido)benzoate, 2 TFA salt], the Ki in assay [1] (setting [3]) is 1.96 nM; in assay [2] (measured at 25° C.) it was less than 5 nM.
In the same order, the values of `Cn1cc2c(n1)CCN(C(=O)c1cn(-c3cccc(Cl)c3F)nn1)C2C(=O)Nc1ccc(C(=O)O)cc1` (stereo not drawn) [Example 220, 4-(5-(1-(3-Chloro-2-fluorophenyl)-1H-1,2,3-triazole-4-carbonyl)-2-methyl-4,5,6,7-tetrahydro-2H-pyrazolo[4,3-c]pyridine-4-carboxamido)benzoic acid] are 179 nM and 769 nM.
For `Cc1nn(C)c2c1C(C(=O)Nc1ccc(C(=O)O)cc1)N(C(=O)c1cn(-c3cccc(Cl)c3F)nn1)CC2` (stereo not drawn) [Example 221, 4-(5-(1-(3-Chloro-2-fluorophenyl)-1H-1,2,3-triazole-4-carbonyl)-1,3-dimethyl-4,5,6,7-tetrahydro-1H-pyrazolo[4,3-c]pyridine-4-carboxamido)benzoic acid], the results for the Ki in assay [1] (setting [3]) and in assay [2] (measured at 25° C.) were 9.56 nM and 179 nM, respectively.
In the same order, the values of `Cc1c2c(nn1C)CCN(C(=O)c1cn(-c3cccc(Cl)c3F)nn1)C2C(=O)Nc1ccc(C(=O)O)cc1` (stereo not drawn) [Example 222, 4-(5-(1-(3-Chloro-2-fluorophenyl)-1H-1,2,3-triazole-4-carbonyl)-2,3-dimethyl-4,5,6,7-tetrahydro-2H-pyrazolo[4,3-c]pyridine-4-carboxamido)benzoic acid] are 10.4 nM and 30 nM.
In the same order, the values of `CC(C)c1nnc2n1CCN(C(=O)c1cn(-c3cccc(Cl)c3F)nn1)C2C(=O)Nc1ccc(C(=O)O)cc1` (stereo not drawn) [Example 223, 4-(7-(1-(3-Chloro-2-fluorophenyl)-1H-1,2,3-triazole-4-carbonyl)-3-isopropyl-5,6,7,8-tetrahydro-[1,2,4]triazolo[4,3-a]pyrazine-8-carboxamido)benzoic acid] are 3510 nM and 2630 nM.
In the same order, the values of `COC(C)(C)C1CCN(c2cccc3c2CCN(C(=O)c2cnn(-c4cccc(Cl)c4F)c2)C3C(=O)Nc2ccc(C(=O)O)cc2)CC1` (stereo not drawn) [Example 224, 4-(2-(1-(3-Chloro-2-fluorophenyl)-1H-pyrazole-4-carbonyl)-5-(4-(2-methoxypropan-2-yl)piperidin-1-yl)-1,2,3,4-tetrahydroisoquinoline-1-carboxamido)benzoic acid, TFA salt] are 92 nM and less than 5 nM.
On to `CC(CO)(CO)COC(C)(C)C1CCN(c2cccc3c2CCN(C(=O)c2cnn(-c4cccc(Cl)c4F)c2)C3C(=O)Nc2ccc(C(=O)O)cc2)CC1` (stereo not drawn) [Example 225, 4-(2-(1-(3-Chloro-2-fluorophenyl)-1H-pyrazole-4-carbonyl)-5-(4-(2-(3-hydroxy-2-(hydroxymethyl)-2-methylpropoxy)propan-2-yl)piperidin-1-yl)-1,2,3,4-tetrahydroisoquinoline-1-carboxamido)benzoic acid, TFA salt], for which the Ki in assay [1] (setting [3]) was 48.8 nM; in assay [2] (measured at 25° C.), less than 5 nM.
In the same order, the values of `O=C(O)c1ccc(NC(=O)C2c3cccc(N4CCN(C5COC5)CC4)c3CCN2C(=O)c2cn(-c3cccc(Cl)c3F)nn2)cc1` (stereo not drawn) [Example 226, 4-(2-(1-(3-Chloro-2-fluorophenyl)-1H-1,2,3-triazole-4-carbonyl)-5-(4-(oxetan-3-yl)piperazin-1-yl)-1,2,3,4-tetrahydroisoquinoline-1-carboxamido)benzoic acid, TFA salt] are 7.65 nM and less than 5 nM.
With `O=C(O)c1ccc(NC(=O)C2c3cccc(N4CCN(CC(F)(F)F)CC4)c3CCN2C(=O)c2cn(-c3cccc(Cl)c3F)nn2)cc1` (stereo not drawn) [Example 229, 4-(2-(1-(3-Chloro-2-fluorophenyl)-1H-1,2,3-triazole-4-carbonyl)-5-(4-(2,2,2-trifluoroethyl)piperazin-1-yl)-1,2,3,4-tetrahydroisoquinoline-1-carboxamido) benzoic acid, TFA salt], the Ki in assay [1] (measured at 37° C. (*)) is 124 nM; in assay [2] (measured at 25° C.), less than 5 nM.
Consider `O=C(O)c1ccc(NC(=O)[C@@H]2c3cccc(N4CCN(CC(F)(F)F)CC4)c3CCN2C(=O)[C@H]2CC(c3cccc(Cl)c3F)=NO2)cc1` [Example 230, 4-((S)-2-((R)-3-(3-Chloro-2-fluorophenyl)-4,5-dihydroisoxazole-5-carbonyl)-5-(4-(2,2,2-trifluoroethyl)piperazin-1-yl)-1,2,3,4-tetrahydroisoquinoline-1-carboxamido)benzoic acid, 2 TFA salt], for which the Ki in assay [1] (measured at 37° C. (*)) is 12.3 nM; in assay [2], less than 5 nM.
As to `O=C(O)c1ccc(NC(=O)[C@H]2c3cccc(N4CCN(CC(F)(F)F)CC4)c3CCN2C(=O)[C@H]2CC(c3cccc(Cl)c3F)=NO2)cc1` [Example 231, 4-((R)-2-((R)-3-(3-Chloro-2-fluorophenyl)-4,5-dihydroisoxazole-5-carbonyl)-5-(4-(2,2,2-trifluoroethyl)piperazin-1-yl)-1,2,3,4-tetrahydroisoquinoline-1-carboxamido)benzoic acid, 2 TFA salt], the values for the Ki in assay [1] (measured at 37° C. (*)) and in assay [2] (measured at 25° C.) were 1290 nM and 136 nM, respectively.
In the same order, the values of `COC(=O)c1ccc(NC(=O)[C@@H]2c3cccc(N4CCN(C5COC5)CC4)c3CCN2C(=O)[C@H]2CC(c3cccc(Cl)c3F)=NO2)cc1` [Example 232, Methyl 4-((S)-2-((R)-3-(3-chloro-2-fluorophenyl)-4,5-dihydroisoxazole-5-carbonyl)-5-(4-(oxetan-3-yl)piperazin-1-yl)-1,2,3,4-tetrahydroisoquinoline-1-carboxamido)benzoate, 2 TFA salt] are 29.7 nM and 4130 nM.
On to `COC(=O)c1ccc(NC(=O)[C@H]2c3cccc(N4CCN(C5COC5)CC4)c3CCN2C(=O)[C@H]2CC(c3cccc(Cl)c3F)=NO2)cc1` [Example 233, Methyl 4-((R)-2-((R)-3-(3-chloro-2-fluorophenyl)-4,5-dihydroisoxazole-5-carbonyl)-5-(4-(oxetan-3-yl)piperazin-1-yl)-1,2,3,4-tetrahydroisoquinoline-1-carboxamido)benzoate, 2 TFA salt], for which the Ki in assay [1] (measured at 37° C. (*)) was more than 13000 nM; in assay [2] (measured at 25° C.), 5.45 nM.
Regarding `Cn1ncnc1-c1cccc2c1CCN(C(=O)c1cn(-c3cccc(Cl)c3F)nn1)C2C(=O)Nc1ccc(C(=O)O)cc1` (stereo not drawn) [Example 245, 4-(2-(1-(3-Chloro-2-fluorophenyl)-1H-1,2,3-triazole-4-carbonyl)-5-(1-methyl-1H-1,2,4-triazol-5-yl)-1,2,3,4-tetrahydroisoquinoline-1-carboxamido)benzoic acid, TFA salt], the Ki was 68.2 nM in assay [1] (measured at 37° C. (*)) and less than 5 nM in assay [2] (measured at 25° C.).
In the same order, the values of `Cn1cnc(-c2cccc3c2CCN(C(=O)c2cn(-c4cccc(Cl)c4F)nn2)C3C(=O)Nc2ccc(C(=O)O)cc2)c1` (stereo not drawn) [Example 246, 4-(2-(1-(3-Chloro-2-fluorophenyl)-1H-1,2,3-triazole-4-carbonyl)-5-(1-methyl-1H-imidazol-4-yl)-1,2,3,4-tetrahydroisoquinoline-1-carboxamido)benzoic acid, TFA salt] are 29.7 nM and less than 5 nM.
Regarding `O=C(O)c1ccc(NC(=O)C2c3cccc(-n4cnnc4)c3CCN2C(=O)c2cn(-c3cccc(Cl)c3F)nn2)cc1` (stereo not drawn) [Example 249, 4-(2-(1-(3-Chloro-2-fluorophenyl)-1H-1,2,3-triazole-4-carbonyl)-5-(4H-1,2,4-triazol-4-yl)-1,2,3,4-tetrahydroisoquinoline-1-carboxamido)benzoic acid, TFA salt], the Ki is 20.4 nM in assay [1] (measured at 37° C. (*)) and less than 5 nM in assay [2] (measured at 25° C.).
On to `Cc1ncn(-c2cccc3c2CCN(C(=O)[C@H]2CC(c4cccc(Cl)c4F)=NO2)[C@@H]3C(=O)Nc2ccc(C(=O)O)cc2)n1` [Example 250, 4-((S)-2-((R)-3-(3-Chloro-2-fluorophenyl)-4,5-dihydroisoxazole-5-carbonyl)-5-(3-methyl-1H-1,2,4-triazol-1-yl)-1,2,3,4-tetrahydroisoquinoline-1-carboxamido)benzoic acid, TFA salt], for which the results for the Ki in assay [1] (measured at 37° C. (*)) and in assay [2] (measured at 25° C.) were 6.8 nM and less than 5 nM, respectively.
Take `Cc1ncn(-c2cccc3c2CCN(C(=O)[C@H]2CC(c4cccc(Cl)c4F)=NO2)[C@H]3C(=O)Nc2ccc(C(=O)O)cc2)n1` [Example 251, 4-((R)-2-((R)-3-(3-Chloro-2-fluorophenyl)-4,5-dihydroisoxazole-5-carbonyl)-5-(3-methyl-1H-1,2,4-triazol-1-yl)-1,2,3,4-tetrahydroisoquinoline-1-carboxamido)benzoic acid, TFA salt]: the inhibition constant (Ki) in assay [1] (measured at 37° C. (*)) stood at 601 nM; in assay [2] (measured at 25° C.), 14.7 nM.
As for `COC1CCN(c2cccc3c2CCN(C(=O)C2CC(=O)N(c4cccc(Cl)c4F)C2)C3C(=O)Nc2ccc(C(=O)O)cc2)CC1` (stereo not drawn) [Example 255, 4-(2-(1-(3-chloro-2-fluorophenyl)-5-oxopyrrolidine-3-carbonyl)-5-(4-methoxypiperidin-1-yl)-1,2,3,4-tetrahydroisoquinoline-1-carboxamido)benzoic acid, TFA salt], the Ki in assay [1] (measured at 25° C. (no asterisk), TFA salt) was found to be 218 nM; in assay [2] (measured at 25° C., TFA salt), 7.13 nM.
